Like-named read-outs stand apart in the source and are kept apart here. Non-standard residues stand in square brackets, D forms with d. Residues, ends and D or L forms follow the SMILES beside them. *: point of attachment. Dansyl = CN(C)c1cccc2c(S(=O)(=O)*)cccc12; Sar = CNCC(=O)O
Assays:
PEPT1 = target: T1, PEPT1 (Homo sapiens, UniProt P46059); assay: Transport currents (Vmax vs Gly-Sar) in Xenopus oocytes transfected with PEPT1, two-electrode voltage-clamp; format: cell-based; details: for Substrate quality for PEPT1 relative to Gly-Sar (in words): cells transfected with PEPT1; for PEPT1 (% Gly-Sar) drug only (Vmax) / PEPT1 (% Gly-Sar) +XP10973 (Vmax): oocytes transfected with PEPT1; for PEPT1 (% Gly-Sar) +XP10973 (Vmax): in the presence of inhibitor XP10973
T1 construct: The complete open reading frame was cloned into a Xenopus oocyte expression plasmid; expressed in transfected cells; host or cells: Xenopus oocytes injected with cRNA
T1 sequence (P46059 1-708): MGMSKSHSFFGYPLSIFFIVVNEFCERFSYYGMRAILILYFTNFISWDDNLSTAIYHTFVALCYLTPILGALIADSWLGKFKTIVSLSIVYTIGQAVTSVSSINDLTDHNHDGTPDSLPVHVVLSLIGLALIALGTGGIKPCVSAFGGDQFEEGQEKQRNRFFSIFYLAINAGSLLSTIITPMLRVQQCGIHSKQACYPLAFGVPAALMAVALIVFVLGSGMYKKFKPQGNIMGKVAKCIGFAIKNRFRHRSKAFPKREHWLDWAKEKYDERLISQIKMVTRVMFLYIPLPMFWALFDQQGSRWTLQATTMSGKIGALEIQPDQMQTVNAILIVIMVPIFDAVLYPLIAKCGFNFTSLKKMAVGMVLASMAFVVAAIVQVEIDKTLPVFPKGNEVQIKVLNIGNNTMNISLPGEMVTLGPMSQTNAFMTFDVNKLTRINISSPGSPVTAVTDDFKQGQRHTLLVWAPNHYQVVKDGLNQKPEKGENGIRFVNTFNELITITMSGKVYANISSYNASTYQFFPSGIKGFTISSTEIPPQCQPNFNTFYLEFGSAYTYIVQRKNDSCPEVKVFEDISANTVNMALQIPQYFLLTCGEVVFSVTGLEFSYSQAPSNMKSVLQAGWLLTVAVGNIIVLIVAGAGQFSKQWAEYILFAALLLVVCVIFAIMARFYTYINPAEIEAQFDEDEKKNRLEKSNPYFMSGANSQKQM
Experimental: (§1) The complete open reading frame was cloned into a Xenopus oocyte expression plasmid, linearized, and cRNA was generated by run-off transcription using the T7 polymerase. Xenopus oocytes were prepared and maintained as previously described
(§2) (Collins, et al., 1997) and injected with 10-30 ng RNA. Transport currents were measured 2-4 days after injection using two-electrode voltage-clamp (Axon Instruments). All experiments were performed using a modified oocyte Ringers solution (90 mM NaCl, 2 mM KCl, 1.8 mM CaCl2, 1 mM MgCl2, and 10 mM NaHEPES, pH 6.8). The membrane potential of oocytes was held at −60 mV and current traces acquired using PowerLab software. Responses to compounds were measured in the presence and absence of a specific non-transported inhibitor (XP10973) for PEPT1 and PEPT2. Data are expressed as the currents that are blocked by XP10973

PEPT2 = target: T2, PEPT2 (Homo sapiens, UniProt Q16348, S640G); assay: Transport currents (Vmax vs Gly-Sar) in Xenopus oocytes transfected with PEPT2, two-electrode voltage-clamp; format: cell-based; details: for Substrate preference PEPT2 versus PEPT1 (in words): comparison of PEPT2 and PEPT1 transfected oocytes
T2 construct: The complete open reading frame was cloned into a Xenopus oocyte expression plasmid; expressed in transfected cells; host or cells: Xenopus oocytes injected with cRNA
T2 sequence (Q16348 1-729 S640G): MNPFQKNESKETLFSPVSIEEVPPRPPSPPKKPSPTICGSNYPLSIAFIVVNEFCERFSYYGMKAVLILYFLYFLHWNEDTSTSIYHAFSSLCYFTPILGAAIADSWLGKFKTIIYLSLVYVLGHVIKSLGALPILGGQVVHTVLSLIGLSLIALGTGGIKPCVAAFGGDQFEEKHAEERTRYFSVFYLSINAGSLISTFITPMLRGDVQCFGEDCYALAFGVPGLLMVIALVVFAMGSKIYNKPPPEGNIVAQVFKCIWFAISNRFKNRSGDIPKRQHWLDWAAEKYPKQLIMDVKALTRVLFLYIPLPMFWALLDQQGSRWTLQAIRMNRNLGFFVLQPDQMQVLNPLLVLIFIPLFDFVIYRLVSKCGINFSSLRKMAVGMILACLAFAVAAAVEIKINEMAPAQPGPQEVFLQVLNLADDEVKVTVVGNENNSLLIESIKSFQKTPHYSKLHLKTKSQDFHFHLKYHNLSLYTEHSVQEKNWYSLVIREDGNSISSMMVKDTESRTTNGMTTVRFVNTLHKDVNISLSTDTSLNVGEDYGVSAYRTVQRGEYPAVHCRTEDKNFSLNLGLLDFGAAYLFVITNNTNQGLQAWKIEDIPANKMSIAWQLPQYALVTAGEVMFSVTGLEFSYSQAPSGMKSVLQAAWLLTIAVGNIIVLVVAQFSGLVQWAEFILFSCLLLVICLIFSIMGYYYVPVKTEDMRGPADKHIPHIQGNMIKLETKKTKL
Experimental: as §1
as §2, with “Transport” for “(Collins, et al., 1997) and injected with 10-30 ng RNA. Transport”

Caco-2 cells = format: in vitro ADME
Experimental: Caco-2 cells were plated on Millipore transwell filters and allowed to differentiate for 18-22 days. Integrity of the monolayers was confirmed by lack of radiolabeled inulin transport across the monolayer. Compounds were added to the apical chamber, and the appearance of compounds in the basolateral chamber were measured at various timepoints by scintillation counting or LC/MS/MS.
FIGS. 1 and 2 show uptake of cephradine and cefadroxil by Caco-2 cells in the presence and absence of XP10973 inhibitor. […] However, as described above, cephradine and cefadroxil are poor substrates for PEPT1 and good substrates for PEPT2.

[1] = oocytes transfected with PEPT2, drug only
[2] = oocytes transfected with PEPT2, in the presence of inhibitor XP10973

Structure (SMILES) | Substrate quality for PEPT1 relative to Gly-Sar (in words) (PEPT1) | PEPT1 (% Gly-Sar) drug only (Vmax) (PEPT1) | PEPT1 (% Gly-Sar) +XP10973 (Vmax) (PEPT1) | PEPT2 (% Gly-Sar) +XP10973 (Vmax) (PEPT2) | PEPT2 (% Gly-Sar) drug only (Vmax) (PEPT2) | Substrate quality for PEPT2 relative to Gly-Sar (in words) (PEPT2) | Substrate quality for PEPT2 relative to Gly-Sar (in words) (PEPT2; cells transfected with PEPT2) | Substrate preference PEPT2 versus PEPT1 (in words) (PEPT2) | PEPT2 (% Gly-Sar) drug only (Vmax) (PEPT2; [1]) | PEPT2 (% Gly-Sar) +XP10973 (Vmax) (PEPT2; [2]) | Uptake by Caco-2 cells (in words) (Caco-2 cells) | Inhibition of PEPT1 transport (in words) (PEPT1) | Inhibition of PEPT2 transport (in words) (PEPT2)
CC1(C)S[C@@H]2[C@H](NC(=O)[C@H](N)c3ccc(O)cc3)C(=O)N2[C@H]1C(=O)O [Amoxacillin, amoxacillin] | relatively poor susbstrates | 1.3 % Gly-Sar | 1.1 % Gly-Sar | 15 % Gly-Sar | 85 % Gly-Sar | relatively good substrates |  |  |  |  |  |  | 
N[C@@H](C(=O)N[C@@H]1C(=O)N2C(C(=O)O)=C(Cl)CS[C@H]12)c1ccccc1 [Cefaclor, cefaclor] | relatively poor susbstrates | 4 % Gly-Sar | 1.6 % Gly-Sar |  |  |  | relatively good substrates | better substrates for PEPT2 than they are for PEPT1 | 148 % Gly-Sar | 22 % Gly-Sar |  |  | 
CC1=C(C(=O)O)N2C(=O)[C@@H](NC(=O)[C@H](N)c3ccc(O)cc3)[C@H]2SC1 [Cephadroxil, cefadroxil] | relatively poor susbstrates | 18 % Gly-Sar | 2.1 % Gly-Sar |  |  |  | relatively good substrates | better substrates for PEPT2 than they are for PEPT1 | 96 % Gly-Sar | 27 % Gly-Sar | taken up |  | 
CC1=C(C(=O)O)N2C(=O)[C@@H](NC(=O)[C@H](N)C3=CCC=CC3)[C@H]2SC1 [Cephradine, cephradine] | relatively poor susbstrates | 3.5 % Gly-Sar | 1.9 % Gly-Sar |  |  |  | relatively good substrates | better substrates for PEPT2 than they are for PEPT1 | 159 % Gly-Sar | 37 % Gly-Sar | taken up |  | 
CN(CC(=O)O)C(=O)CN [Gly-Sar] (H-Gly-[Sar]-OH) |  | 100 % Gly-Sar | 16 % Gly-Sar |  |  |  |  |  | 100 % Gly-Sar | 12 % Gly-Sar |  |  | 
CC(C)C[C@H](NC(=O)[C@@H](N)CCCCNS(=O)(=O)c1cccc2c(N(C)C)cccc12)C(=O)O [XP10973] (H-Lys(Dansyl)-Leu-OH) |  |  |  |  |  |  |  |  |  |  |  | specific inhibitor | specific inhibitor

From patent US7919454B2, “Methods of treating using conjugates transported by a PEPT2 transporter” (XenoPort, Inc., priority 2001, dated 2011)
